This series is described as follows: photoluminescence quantum yield (fraction); solvent given as SMILES.
The mark [1] stands for this setting: in O=P(c1ccccc1)(c1ccccc1)c1ccccc1Oc1ccccc1P(=O)(c1ccccc1)c1ccccc1.

`CN(C)c1nc(N)c2nc(C#N)n(Cc3ccccc3)c2n1`: the photoluminescence quantum yield is, setting by setting: (in C1COCCO1) 0.92; (in CC#N) 0.55; (in CO) 0.8; (in ClCCl) 0.95.

In turn, `O=C1c2ccccc2C(=O)C1C1C(=O)c2c3ccccc3cc3cc4ccccc4c1c23` (stereo not drawn) showed a photoluminescence quantum yield (in C1CCOC1) of 0.294; a photoluminescence quantum yield (in CC#N) of 0.139; a photoluminescence quantum yield (in CCCCCC) of 0.339; a photoluminescence quantum yield (in Cc1ccccc1) of 0.356; a photoluminescence quantum yield (in ClCCl) of 0.247.

Regarding `COC(=O)c1c(NC(C)(C)C)oc(-c2ccc(-c3ccccc3)cc2)c1C(=O)OC`, the photoluminescence quantum yield (in CC#N) amounted to 0.14.

Consider `O=S1(=O)c2ccccc2Oc2cc(N3c4ccccc4C4(c5ccccc53)c3ccccc3N(c3ccc5c(c3)Oc3ccccc3S5(=O)=O)c3ccccc34)ccc21`, for which, under setting [1], the photoluminescence quantum yield was 0.63.

On to `F[B-]1(F)n2cccc2C=C2c3ccccc3C(c3ccc[nH]3)=[N+]21`, for which the photoluminescence quantum yield reads like this: (in C1CCOC1) 0.82; (in CC#N) 0.8; (in CCCCCC) 0.83; (in CO) 0.76; (in Cc1ccccc1) 0.81; (in ClCCl) 0.8.

Take `CCn1ncc2c3c(C#N)c4c5ccccc5n(C)c4nc3ccc21`: the photoluminescence quantum yield (in CCOC(C)=O) was found to be 0.56.

With `O=C(c1ccc(-n2c3ccccc3c3ccccc32)cc1)c1ccc(-n2c3ccccc3c3ccccc32)cc1`, the photoluminescence quantum yield was found to be 0.21 (in Cc1ccccc1) and 0.55 under setting [1].

`COc1ccc(-c2nc(-c3ccc(OC)cc3)c(-c3ccc(OC)cc3)[nH]2)cc1`: the photoluminescence quantum yield (in CO) came to 0.2.

Under “in ClC(Cl)Cl”, `CCCCCCN(c1ccccc1)c1ccc(/C=C/c2cc(=O)oc3cc(C)ccc23)cc1` showed a photoluminescence quantum yield of 0.05.

The compound `c1ccc2c(c1)cc(-c1cc(-c3nccs3)nc(-c3nccs3)c1)c1ccccc12` gave a photoluminescence quantum yield (in CC#N) of 0.234, a photoluminescence quantum yield (in CCCCCC) of 0.142, a photoluminescence quantum yield (in CO) of 0.161 and a photoluminescence quantum yield (in ClC(Cl)Cl) of 0.312.

Where the note is “in ClC(Cl)Cl”, `COc1ccc(-c2nc(-c3ccccc3)c(N(C)C)[se]2)cc1` showed a photoluminescence quantum yield of 0.039.

In the case of `COc1ccc2c(c1)C(=O)c1cc(OC)cc(OC)c1-2`, the photoluminescence quantum yield runs as follows: (in C1CCCCC1) 0.0024; (in CC#N) 0.0001; (in CCO) 0.

Take `CCCC1(CCC)c2cc(-c3ccc(C(C)(C)C)cc3)ccc2-c2ccc(-c3ccc4c(c3)C(CCC)(CCC)c3cc(-c5ccc6c(c5)C(CCC)(CCC)c5cc(-c7ccc8c(c7)C(CCC)(CCC)c7cc(-c9ccc(C(C)(C)C)cc9)ccc7-8)ccc5-6)ccc3-4)cc21`: the photoluminescence quantum yield (in C1CCCCC1) was determined as 1.

`COc1cccc(OC)c1-c1c2ccc(=[N+]3CCNCC3)cc-2oc2cc(N3CCNCC3)ccc12`: the photoluminescence quantum yield came to 0.008 (in CCO) and 0.14 (in O).

For `Cn1cc(-c2nc3ccccc3nc2/C=C/N2CCCC2)c2ccccc21`, the photoluminescence quantum yield reads like this: (in C1CCCCC1) 0.126; (in C1CCOC1) 0.444; (in CC#N) 0.43; (in CC(C)=O) 0.456; (in CCO) 0.048; (in CO) 0.012. Also, the photoluminescence quantum yield came out at 0.496 (in CS(C)=O), 0.375 (in Cc1ccccc1) and 0.579 (in ClCCl).

Take `CC(C)[Si](C#Cc1c2ccc(C(C)(C)C)cc2c(C#C[Si](C(C)C)(C(C)C)C(C)C)c2ccc(C(C)(C)C)cc12)(C(C)C)C(C)C`: the photoluminescence quantum yield (in Cc1ccccc1) worked out at 0.92.

Source of the values: the Deep4Chem optical property database.
